The structures appear in SMILES notation.

For the assay, the target named is T1, UDP-3-O-acyl-N-acetylglucosamine deacetylase (Pseudomonas aeruginosa (strain ATCC 15692 / PAO1 / 1C / PRS 101 / LMG12228), UniProt P47205).
T1 sequence (P47205 whole entry): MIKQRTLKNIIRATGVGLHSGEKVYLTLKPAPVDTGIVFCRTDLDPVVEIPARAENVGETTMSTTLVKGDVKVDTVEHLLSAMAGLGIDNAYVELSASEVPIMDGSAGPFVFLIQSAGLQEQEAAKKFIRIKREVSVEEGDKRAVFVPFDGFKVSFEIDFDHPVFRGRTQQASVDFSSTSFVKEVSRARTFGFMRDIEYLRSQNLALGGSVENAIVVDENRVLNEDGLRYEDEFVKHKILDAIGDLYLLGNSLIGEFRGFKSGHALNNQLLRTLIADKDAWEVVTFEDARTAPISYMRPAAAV
Nature of the assay: At the end of 1 hour, 5 ul of 1N HCl was added to stop the enzyme reaction; the plates were centrifuged, and then processed with the BioTrove Rapidfire HTMS Mass Spectrometry System.
Broadly, the IC50 is the concentration at which inhibition is half-maximal. Lower therefore signals inhibition by little substance. In the case of `CC(CCc1ccc(OC2CCCCC2)cc1)(C(=O)NO)S(C)(=O)=O` (configuration not stated), it took 0.753 nM to reach half-maximal inhibition (IC50).

As to `CCC(CC)COc1ccc(CCC(C)(C(=O)NO)S(C)(=O)=O)cc1` (configuration not stated), the IC50 was 1.29 nM.

On to `CCC(c1ccccc1)c1noc(COc2ccc(CCC(C)(C(=O)NO)S(C)(=O)=O)cc2)n1` (configuration not stated), for which the IC50 is 20.5 nM.

Compound `CC(CCc1ccc(OCc2nc(-c3cccc(F)c3)no2)cc1)(C(=O)NO)S(C)(=O)=O` (configuration not stated) displayed an IC50 of 3.81 nM.

Regarding `CC(CCc1ccc(OCCCOCc2ccccc2)cc1)(C(=O)NO)S(C)(=O)=O` (configuration not stated), the half-inhibitory concentration (IC50) worked out at 21.1 nM.

With `Cc1ncccc1COc1ccc(CCC(C)(C(=O)NO)S(C)(=O)=O)cc1` (configuration not stated), the IC50 was 5.59 nM.

With `CC(CCc1ccc(OCC2CC2)cc1)(C(=O)NO)S(C)(=O)=O` (configuration not stated), the IC50 was 10.5 nM.

Regarding `CC(CCc1ccc(OCCOc2ccccc2)cc1)(C(=O)NO)S(C)(=O)=O` (configuration not stated), 1.52 nM corresponded to half-maximal inhibition (IC50).

For the compound `CC(CCc1ccc(OCc2ccc(F)cc2C(F)(F)F)cc1)(C(=O)NO)S(C)(=O)=O` (configuration not stated), the IC50 was 2.36 nM.

With `CC(CCc1ccc(OCc2cccc(Cl)c2)cc1)(C(=O)NO)S(C)(=O)=O` (configuration not stated), the IC50 stood at 1.32 nM.

Consider `CCCCCCOc1ccc(CCC(C)(C(=O)NO)S(C)(=O)=O)cc1` (configuration not stated), for which the IC50 was found to be 6.31 nM.

In turn, `CC(CCc1ccc(OCc2nc(-c3cccc(F)c3F)no2)cc1)(C(=O)NO)S(C)(=O)=O` (configuration not stated) had an IC50 of 5.31 nM.

The compound `Cc1ccc(C)c(COc2ccc(CCC(C)(C(=O)NO)S(C)(=O)=O)cc2)c1` (configuration not stated) returned an IC50 of 4.25 nM.

As for `CC(CCc1ccc(OCc2nc(-c3cc(F)cc(F)c3)no2)cc1)(C(=O)NO)S(C)(=O)=O` (configuration not stated), the midpoint of inhibition, the IC50, lay at 5.81 nM.

`CC(CCc1ccc(OCc2nc(Cc3cc(F)ccc3F)no2)cc1)(C(=O)NO)S(C)(=O)=O` (configuration not stated) gave a half-maximal inhibitory concentration (IC50) of 0.714 nM.

On to `Cc1cc(C)cc(COc2ccc(CCC(C)(C(=O)NO)S(C)(=O)=O)cc2)c1` (configuration not stated), for which the IC50 is 4.5 nM.

For the compound `COc1ccc(F)c(-c2noc(COc3ccc(CCC(C)(C(=O)NO)S(C)(=O)=O)cc3)n2)c1` (configuration not stated), half-maximal inhibition (IC50) required 6.39 nM.

Take `Cc1cccc(COc2ccc(CCC(C)(C(=O)NO)S(C)(=O)=O)cc2)c1F` (configuration not stated): the concentration for half-maximal inhibition (IC50) stood at 0.525 nM.

`Cc1ccc(COc2ccc(CCC(C)(C(=O)NO)S(C)(=O)=O)cc2)cc1` (configuration not stated): the IC50 stood at 1.02 nM.

Compound `CC(CCc1ccc(OCC2CCC2)cc1)(C(=O)NO)S(C)(=O)=O` (configuration not stated) gave an IC50 of 3.28 nM.

Compound `CC(C)CCCOc1ccc(CCC(C)(C(=O)NO)S(C)(=O)=O)cc1` (configuration not stated) came in with an IC50 of 3.22 nM.

On to `CC(CCc1ccc(OCc2cccc(F)c2)cc1)(C(=O)NO)S(C)(=O)=O` (configuration not stated), for which the midpoint of inhibition, the IC50, lay at 0.834 nM.

As for `Cc1ccc(-c2noc(COc3ccc(CCC(C)(C(=O)NO)S(C)(=O)=O)cc3)n2)cc1` (configuration not stated), the midpoint of inhibition, the IC50, lay at 3.48 nM.

`Cc1ccc(COc2ccc(CCC(C)(C(=O)NO)S(C)(=O)=O)cc2)cn1` (configuration not stated) gave a concentration for half-maximal inhibition (IC50) of 5.96 nM.

`CC(CCc1ccc(OCCc2ccccc2)cc1)(C(=O)NO)S(C)(=O)=O` (configuration not stated) had an IC50 of 4.03 nM.

As for `CC(CCc1ccc(OCc2nc(C3CCCC3)no2)cc1)(C(=O)NO)S(C)(=O)=O` (configuration not stated), half-maximal inhibition (IC50) was put at 7.2 nM.

The compound `CC(CCc1ccc(OCc2cccc(OC(F)(F)F)c2)cc1)(C(=O)NO)S(C)(=O)=O` (configuration not stated) showed a half-maximal inhibitory concentration (IC50) of 2.71 nM.

Turning to `CC(CCc1ccc(OCc2cc(C#N)ccc2F)cc1)(C(=O)NO)S(C)(=O)=O` (configuration not stated), 1.36 nM corresponded to half-maximal inhibition (IC50).

As to `CC(CCc1ccc(OCc2nc3ccccc3s2)cc1)(C(=O)NO)S(C)(=O)=O` (configuration not stated), the IC50 was determined as 0.651 nM.

Turning to `CC(CCc1ccc(OCc2ccc3ccccc3n2)cc1)(C(=O)NO)S(C)(=O)=O` (configuration not stated), the IC50 came to 13.9 nM.

`CC(CCc1ccc(OCCc2ccncc2)cc1)(C(=O)NO)S(C)(=O)=O` (configuration not stated): the IC50 is 13.7 nM.

As for `CC(CCc1ccc(OCCC2CCCC2)cc1)(C(=O)NO)S(C)(=O)=O` (configuration not stated), the half-maximal inhibitory concentration (IC50) was determined as 1.27 nM.

On to `CC(CCc1ccc(OCCCC2CCCC2)cc1)(C(=O)NO)S(C)(=O)=O` (configuration not stated), for which the IC50 stood at 2.55 nM.

In the case of `CC(CCc1ccc(OCCC2CCCCC2)cc1)(C(=O)NO)S(C)(=O)=O` (configuration not stated), the IC50 is 2.79 nM.

The compound `CC(CCc1ccc(OCCCC2CCCCC2)cc1)(C(=O)NO)S(C)(=O)=O` (configuration not stated) yielded an IC50 of 4.56 nM.

Turning to `CC(CCc1ccc(OCCCc2ccccc2)cc1)(C(=O)NO)S(C)(=O)=O` (configuration not stated), the IC50 turned out to be 10.2 nM.

On to `CC(CCc1ccc(OCCC2CC2)cc1)(C(=O)NO)S(C)(=O)=O` (racemic), for which the IC50 was determined as 1.36 nM.

The values are drawn from ChEMBL document CHEMBL3638721, “C-linked hydroxamic acid derivatives useful as antibacterial agents” (2014).
